According to patent publication US20010046963A1, “Novel use of flavones” (priority 2000, published 2001):

Experiments:
[1] = system: COX-2 mRNA; assay: Semi-quantitative RT-PCR determination of COX-2 mRNA levels in HT-29 cells; assay type: cell-based; details: for COX-2/GAPDH [AUC]: HT-29 cells, 150 μM flavone, n = 4
Experimental: (§1) HT-29 cells (passage 106) were provided by ATCC and used between passage 150 and 200. Cells were cultured and passaged in RPMI-1640 supplemented with […] and 2 mM glutamine (all from GIBCO, Eggenstein, Germany). Antibiotics added were 100 U/ml penicillin and 100 μg/ml streptomycin (GIBCO). The cultures were maintained in a humidified atmosphere of 95% air and 5% CO2 at 37° C. Cells were passaged at preconfluent densities by the use of a solution containing 0.05% trypsin and 0.5 mM EDTA (GIBCO).
(§2) RNA from HT-29 cells was isolated at the times indicated in table 5 according to the method described by Chomczynski and Sacchi Anal. Biochem. 162 (1987) 156 with slight modifications. Reverse transcription was done with 5 μg of isolated RNA. First strand cDNA synthesis was accomplished with an oligo-(dT)15 primer (MBI Fermentas). Amplification of sequence specific fragments (Taq Polymerase was from Sigma) was performed with 30 cycles (95° C. denaturation for 1 min, 55° C. hybridization for 2 min, 72° C. extensions for 2 min; Personal Cycler, Biometra, Göttingen, Germany). RT-PCR products were separated on a 1% agrose gel and visualized by ethidium bromide. The amount of first strand used to amplify specific sequences was derived from the linear range of amplification. The amplified GAP-DH sequence was used as a constitutively expressed control. The amplivied products were photographed and the intensity of the bands was analyzed by the SigmaGel software. No products were obtained for all genes without reverse transcription […]. A λ-DNA/EcoRI+HindIII marker (MBI Fermentas) was used in all PCR experiments as a size control of the amplified products. Amplified cDNA sequences (primers were custom synthesized by Eurogentec, Seraing, Belgium) were GAP-DH: bp 558-1010; COX-2: bp 1366-1870, NFχB:bp 2832-3401.
(§3) That this effect on gene expression occurred selectively was shown by unaltered mRNA levels of the tumor suppressor p53.
(§4) Semi-quantitative determination of COX-2 and NFχB mRNA levels in HT-29 cells by use of RT-PCR (n=4).

[2] = system: NFχB mRNA; assay: Semi-quantitative RT-PCR determination of NFχB mRNA levels in HT-29 cells; assay type: cell-based; details: for NFχB/GAPDH [AUC]: 150 μM flavone, n = 4
Experimental: as §1, §2, §3, §4

Q: How did the “COX-2 transcript levels (in words)” value ([1]; HT-29 cells exposed to flavone for 48 h) turn out when O=c1cc(-c2ccccc2)oc2ccccc12 [flavone, Flavone] was run?
A: diminished in its transcript levels drastically

Q: What about the “COX-2/GAPDH [AUC]” value ([1]; incubation time 3 h) of the same compound?
A: 0.69 AUC

Q: And the “COX-2/GAPDH [AUC]” value ([1]; incubation time 8 h)?
A: 0.35 AUC

Q: What about the “NFχB/GAPDH [AUC]” value ([2]; incubation time 3 h) of the same compound?
A: 1.1 AUC

Q: What about the “NFχB/GAPDH [AUC]” value ([2]; incubation time 8 h) of the same compound?
A: 1.7 AUC

Q: And the “mRNA of NFχB (in words)” value ([2]; flavone treatment)?
A: reduced dramatically
